# Reference: ChEMBL document CHEMBL5346920, “Development of the "hidden" multi-target-directed ligands by AChE/BuChE for the treatment of Alzheimer's disease” (Eur J Med Chem, 2023)
# The source made the active and inactive calls. No cut-off for these calls is given here.
# Experiments:
# Danio rerio [1] = species: Danio rerio; assay: Antialzheimer activity against AlCl3-induced Alzheimer's disease zebra fish model assessed as total distance moved at 8 uM treated for 24 hrs and measured after 24 hrs under alternating light dark stimuli conditions (reference value: 543 cm); type: functional; conditions: time 48 hrs
# Danio rerio [2] = species: Danio rerio; assay: Neuroprotective activity against AlCl3-induced Alzheimer's disease zebra fish model assessed as inhibition of AlCl3-induced AChE activity at 8 uM treated for 24 hrs and measured after 24 hrs; type: functional, organism-based; conditions: time 48.0 hrs
# Danio rerio [3] = species: Danio rerio; assay: Antialzheimer activity against AlCl3-induced Alzheimer's disease zebra fish model assessed as total distance moved at 8 uM treated for 24 hrs and measured after 24 hrs under dark environment (reference value: 312 cm); type: functional; conditions: time 48 hrs
# Danio rerio [4] = species: Danio rerio; assay: Antialzheimer activity against AlCl3-induced Alzheimer's disease zebra fish model assessed as total distance moved at 8 uM treated for 24 hrs and measured after 24 hrs under light environment (reference value: 230 cm); type: functional; conditions: time 48 hrs
# [5] = target: Cholinesterase (Equus caballus) (UniProt P81908); assay: Reversible inhibition of equine serum BuChE assessed as enzyme activity using butyrylthiocholine chloride as substrate measured after dilution to 0.1XIC50 for 240 mins by Ellman's method; type: cell-free; design: scale not given: the % may be the effect or the level left
# Sequence of Cholinesterase (Equus caballus) (P81908 whole entry): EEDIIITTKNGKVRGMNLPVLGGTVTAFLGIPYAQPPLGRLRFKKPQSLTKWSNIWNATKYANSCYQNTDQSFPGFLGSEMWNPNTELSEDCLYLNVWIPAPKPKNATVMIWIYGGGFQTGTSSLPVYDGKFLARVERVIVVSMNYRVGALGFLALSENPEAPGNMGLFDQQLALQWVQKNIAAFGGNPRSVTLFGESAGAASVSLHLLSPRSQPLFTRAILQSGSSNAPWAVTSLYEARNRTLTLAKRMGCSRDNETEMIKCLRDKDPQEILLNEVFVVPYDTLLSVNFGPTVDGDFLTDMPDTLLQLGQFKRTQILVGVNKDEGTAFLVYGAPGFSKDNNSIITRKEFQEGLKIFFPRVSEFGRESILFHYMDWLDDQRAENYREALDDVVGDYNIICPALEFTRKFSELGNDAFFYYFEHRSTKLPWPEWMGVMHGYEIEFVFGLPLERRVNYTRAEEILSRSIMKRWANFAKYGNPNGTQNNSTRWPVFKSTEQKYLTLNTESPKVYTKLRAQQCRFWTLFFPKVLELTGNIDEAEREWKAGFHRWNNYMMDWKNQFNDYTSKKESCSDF
# Danio rerio [6] = species: Danio rerio; assay: Neuroprotective activity against AlCl3-induced Alzheimer's disease zebra fish model assessed as increase in ACh content at 8 uM treated for 24 hrs and measured after 24 hrs; type: functional, organism-based; conditions: time 48.0 hrs
# BV-2 [7] = assay: Anti-inflammatory activity against LPS-stimulated mouse BV-2 cells assessed as inhibition of LPS-induced IL-1 beta production by measuring IL-beta level at 1 uM incubated for 24 hrs in presence of LPS (reference value: 221.3 pg/ml); type: functional
# BV-2 [8] = assay: Anti-inflammatory activity against LPS-stimulated mouse BV-2 cells assessed as inhibition of LPS-induced IL-6 production by measuring IL-6 level at 3 uM incubated for 24 hrs in presence of LPS (reference value: 1503.2 pg/ml); type: functional
# BV-2 [9] = assay: Anti-inflammatory activity against LPS-stimulated mouse BV-2 cells assessed as inhibition of LPS-induced IL-6 production by measuring IL-6 level at 1 uM incubated for 24 hrs in presence of LPS (reference value: 1503.2 pg/ml); type: functional
# BV-2 [10] = assay: (§1) Cytotoxicity against mouse BV-2 cells assessed as cell viability at 30 uM by CCK8 assay; type: toxicity, cell-based; conditions: bv-2, 30 µM
# BV-2 [11] = assay: Anti-inflammatory activity against LPS-stimulated mouse BV-2 cells assessed as inhibition of LPS-induced IL-6 production by measuring IL-6 level at 9 uM incubated for 24 hrs in presence of LPS (reference value: 1503.2 pg/ml); type: functional
# BV-2 [12] = assay: Anti-inflammatory activity against LPS-stimulated mouse BV-2 cells assessed as inhibition of LPS-induced IL-1 beta production by measuring IL-beta level at 3 uM incubated for 24 hrs in presence of LPS (reference value: 221.3 pg/ml); type: functional
# BV-2 [13] = assay: Anti-inflammatory activity against LPS-stimulated mouse BV-2 cells assessed as inhibition of LPS-induced IL-1 beta production by measuring IL-beta level at 9 uM incubated for 24 hrs in presence of LPS (reference value: 221.3 pg/ml); type: functional
# [14] = Stability of the compound in artificial intestinal juice assessed as parent compound remaining at 1 mg/ml measured after 8 hrs by UPLC-MS/MS analysis; type: ADME; conditions: read-out: Stability
# Acetylcholinesterase = Acetylcholinesterase (Electrophorus electricus, UniProt O42275); assay: Inhibition of electric eel AChE using acetylthiocholine chloride as substrate by Ellman's method
# Sequence of Acetylcholinesterase (O42275 whole entry): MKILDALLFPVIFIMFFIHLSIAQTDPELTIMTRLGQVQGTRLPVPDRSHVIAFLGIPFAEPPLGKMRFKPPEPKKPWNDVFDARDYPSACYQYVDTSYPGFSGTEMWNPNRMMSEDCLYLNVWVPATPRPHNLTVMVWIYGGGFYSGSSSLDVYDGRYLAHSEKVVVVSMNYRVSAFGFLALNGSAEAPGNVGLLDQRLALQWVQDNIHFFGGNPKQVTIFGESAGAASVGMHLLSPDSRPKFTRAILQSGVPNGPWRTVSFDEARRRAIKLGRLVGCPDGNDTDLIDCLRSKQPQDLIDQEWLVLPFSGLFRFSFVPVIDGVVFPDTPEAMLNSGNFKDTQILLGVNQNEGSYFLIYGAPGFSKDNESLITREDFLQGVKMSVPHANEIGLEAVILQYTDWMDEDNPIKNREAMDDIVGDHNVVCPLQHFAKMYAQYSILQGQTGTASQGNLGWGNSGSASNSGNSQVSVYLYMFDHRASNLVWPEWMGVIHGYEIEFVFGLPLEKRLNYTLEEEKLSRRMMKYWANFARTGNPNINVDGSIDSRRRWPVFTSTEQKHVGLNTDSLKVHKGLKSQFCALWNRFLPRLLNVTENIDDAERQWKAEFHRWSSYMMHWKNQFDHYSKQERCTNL
# [15] = Stability of the compound in rat plasma assessed as parent compound remaining at 10 ug/ml measured after 3 hrs by UPLC-MS/MS analysis; type: ADME, cell-free; conditions: at 10 µg/mL, read-out: Stability
# [16] = Metal chelating activity assessed as compound-Zn2+ complex formation at 37.5 uM incubated for 30 mins in presence of ZnCl2 by UV-Vis spectrometry
# [17] = Metal chelating activity assessed as compound-Cu2+ complex formation by measuring small fiber aggregates incubated for 24 hrs by transmission electron microscopy
# [18] = target: T1, Amine oxidase [flavin-containing] A (Homo sapiens, UniProt P21397); assay: Inhibition of human recombinant MAO-A expressed in baculovirus-infected BTI cells using kynuramine as substrate incubated for 30 mins by fluorescence based analysis
# T1 sequence (P21397 whole entry): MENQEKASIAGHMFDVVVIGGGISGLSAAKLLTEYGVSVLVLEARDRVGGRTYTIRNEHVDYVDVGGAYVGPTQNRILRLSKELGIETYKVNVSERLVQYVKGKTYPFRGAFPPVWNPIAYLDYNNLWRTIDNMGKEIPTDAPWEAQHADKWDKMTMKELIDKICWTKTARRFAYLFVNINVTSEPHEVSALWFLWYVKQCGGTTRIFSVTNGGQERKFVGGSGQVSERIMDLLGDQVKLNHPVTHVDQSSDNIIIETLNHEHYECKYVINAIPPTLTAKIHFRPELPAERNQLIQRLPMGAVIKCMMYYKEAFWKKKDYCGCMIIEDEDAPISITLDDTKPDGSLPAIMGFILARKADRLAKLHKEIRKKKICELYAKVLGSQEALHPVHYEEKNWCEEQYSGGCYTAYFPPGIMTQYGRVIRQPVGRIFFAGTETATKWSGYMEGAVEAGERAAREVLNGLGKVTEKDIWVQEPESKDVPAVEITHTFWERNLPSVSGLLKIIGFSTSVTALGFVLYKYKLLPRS
# [19] = target: T2, Amine oxidase [flavin-containing] B (Homo sapiens, UniProt P27338); assay: Inhibition of human recombinant MAO-B expressed in baculovirus-infected BTI cells using kynuramine as substrate incubated for 30 mins by fluorescence based analysis
# T2 sequence (P27338 whole entry): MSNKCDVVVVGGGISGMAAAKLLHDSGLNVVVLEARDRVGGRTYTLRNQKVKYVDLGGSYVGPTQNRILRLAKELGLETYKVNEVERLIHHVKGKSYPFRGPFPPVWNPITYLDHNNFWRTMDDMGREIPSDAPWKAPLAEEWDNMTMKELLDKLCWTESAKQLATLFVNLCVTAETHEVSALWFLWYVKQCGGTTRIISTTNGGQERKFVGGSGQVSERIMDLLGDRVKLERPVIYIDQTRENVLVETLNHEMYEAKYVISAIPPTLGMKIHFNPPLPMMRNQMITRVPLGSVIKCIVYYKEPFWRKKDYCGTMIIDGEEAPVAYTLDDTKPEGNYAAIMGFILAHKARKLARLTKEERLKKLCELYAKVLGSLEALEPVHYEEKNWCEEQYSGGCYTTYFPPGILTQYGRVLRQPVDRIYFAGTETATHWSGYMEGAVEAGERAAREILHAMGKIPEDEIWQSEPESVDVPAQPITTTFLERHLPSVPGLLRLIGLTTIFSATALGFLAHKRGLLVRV
# [20] = Stability of the compound in blank gastric juice assessed as parent compound remaining at 1 mg/ml measured after 8 hrs by UPLC-MS/MS analysis; type: ADME; conditions: read-out: Stability
# Homo sapiens = species: Homo sapiens; assay: Selectivity index, ratio of IC50 for inhibition of human recombinant MAO-A expressed in baculovirus-infected BTI cells to IC50 for inhibition of human recombinant MAO-B expressed in baculovirus-infected BTI cells
# [21] = Metal chelating activity assessed as compound-Cu2+ complex formation by measuring inhibition of Cu2+-induced amyloid beta (1 to 42) aggregation at 25 uM by thioflavin T-based fluorescence analysis
# [22] = Metal chelating activity assessed as compound-Fe2+ complex formation at 37.5 uM incubated for 30 mins in presence of FeSO4 by UV-Vis spectrometry
# BV-2 [23] = assay: Anti-inflammatory activity against LPS-stimulated mouse BV-2 cells assessed as inhibition of LPS-induced NO production incubated for 24 hrs in presence of LPS; type: functional, cell-based; conditions: dose 1-9 µM
# [24] = target: Amyloid-beta precursor protein (Homo sapiens) (UniProt P05067); assay: Inhibition of self-induced Amyloid beta (1 to 42) (unknown origin) aggregation at 25 uM incubated for 24 hrs by thioflavin T-based fluorescence analysis
# Sequence of Amyloid-beta precursor protein (Homo sapiens) (P05067 whole entry): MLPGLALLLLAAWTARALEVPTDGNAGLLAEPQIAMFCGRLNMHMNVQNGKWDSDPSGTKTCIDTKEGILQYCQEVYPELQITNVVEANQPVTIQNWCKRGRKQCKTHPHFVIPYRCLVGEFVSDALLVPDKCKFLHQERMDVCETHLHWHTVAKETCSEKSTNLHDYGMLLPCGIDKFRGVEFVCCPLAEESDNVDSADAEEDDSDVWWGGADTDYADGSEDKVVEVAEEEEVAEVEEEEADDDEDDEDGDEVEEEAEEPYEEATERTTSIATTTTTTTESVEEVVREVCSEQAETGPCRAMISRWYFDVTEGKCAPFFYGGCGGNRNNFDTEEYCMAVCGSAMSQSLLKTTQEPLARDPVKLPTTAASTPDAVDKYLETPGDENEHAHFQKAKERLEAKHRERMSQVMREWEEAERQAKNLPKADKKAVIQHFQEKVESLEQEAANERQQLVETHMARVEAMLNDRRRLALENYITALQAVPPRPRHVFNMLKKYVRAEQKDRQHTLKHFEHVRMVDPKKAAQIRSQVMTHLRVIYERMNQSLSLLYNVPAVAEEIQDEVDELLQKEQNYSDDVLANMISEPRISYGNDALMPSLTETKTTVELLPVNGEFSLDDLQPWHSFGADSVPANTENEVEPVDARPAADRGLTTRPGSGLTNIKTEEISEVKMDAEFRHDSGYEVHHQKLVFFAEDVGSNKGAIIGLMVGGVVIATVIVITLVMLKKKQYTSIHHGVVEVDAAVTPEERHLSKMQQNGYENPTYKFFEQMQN
# PC-12 [25] = assay: Neuroprotective activity against Amyloid beta(25 to 35)-induced cell injury in rat PC12 cells assessed as cell viability at 5 uM pretreated for 2 hrs followed by incubation with Abeta(25 to 35) for 24 hrs by CCK-8 assay (reference value: 41 to 58.6%); type: functional; conditions: time 26 hrs, read-out: Activity
# [26] = Stability of the compound in blank intestinal juice assessed as parent compound remaining at 1 mg/ml measured after 8 hrs by UPLC-MS/MS analysis; type: ADME; conditions: read-out: Stability
# BV-2 [27] = assay: Anti-inflammatory activity against LPS-stimulated mouse BV-2 cells assessed as inhibition of LPS-induced IL-1 beta production incubated for 24 hrs in presence of LPS; type: functional, cell-based; conditions: dose 1-9 µM
# [28] = Permeability of the compound at 100 ug/ml incubated for 18 hrs by PAMPA assay; type: ADME; conditions: dose 100 µg/ml, read-out: permeability
# [29] = as §1; type: toxicity, cell-based; conditions: BV-2 cells, read-out: Activity
# PC-12 [30] = assay: Neuroprotective activity against Amyloid beta(25 to 35)-induced cell injury in rat PC12 cells assessed as cell viability at 10 uM pretreated for 2 hrs followed by incubation with Abeta(25 to 35) for 24 hrs by CCK-8 assay (reference value: 41 to 58.6%); type: functional; conditions: time 26 hrs, read-out: Activity
# PC-12 [31] = assay: Neuroprotective activity against Amyloid beta(25 to 35)-induced cell injury in rat PC12 cells assessed as cell viability at 20 uM pretreated for 2 hrs followed by incubation with Abeta(25 to 35) for 24 hrs by CCK-8 assay (reference value: 41 to 58.6%); type: functional; conditions: time 26 hrs, read-out: Activity
# BV-2 [32] = assay: Anti-inflammatory activity against LPS-stimulated mouse BV-2 cells assessed as inhibition of LPS-induced IL-6 production incubated for 24 hrs in presence of LPS; type: functional, cell-based; conditions: dose 1-9 µM
# [33] = Stability of the compound in artificial gastric juice assessed as parent compound remaining at 1 mg/ml measured after 8 hrs by UPLC-MS/MS analysis; type: ADME; conditions: read-out: Stability
# [34] = Metal chelating activity assessed as compound-Al3+ complex formation by measuring maximum absorption wavelength shift from 316 to 434 nm at 37.5 uM incubated for 30 mins in presence of AlCl3 by UV-Vis spectrometry
# [35] = Metal chelating activity assessed as compound-Cu2+ complex formation at stoichiometric ratio of 1:1 at 37.5 uM in presence of CuCl2 by UV-Vis spectrometry
# [36] = target: Cholinesterase (Equus caballus) (UniProt P81908); assay: Inhibition of equine serum BuChE using butyrylthiocholine chloride as substrate at 25 uM by Ellman's method; type: cell-free
# [37] = Metal chelating activity assessed as compound-Cu2+ complex formation by measuring maximum absorption wavelength shift from 316 to 446 nm at 37.5 uM incubated for 30 mins in presence of CuCl2 by UV-Vis spectrometry
# BV-2 [38] = assay: Cytotoxicity against mouse BV-2 cells assessed as reduction in cell viability at 10 uM by CCK8 assay; type: toxicity, cell-based; conditions: bv-2, 10 µM
# PC-12 [39] = assay: Cytotoxicity against rat PC-12 cells assessed as cell viability at 40 uM by CCK-8 assay; type: toxicity, cell-based; conditions: pc-12, 40 µM
# [40] = Stability of the compound in rat liver microsomes assessed as parent compound remaining at 10 ug/ml measured after 60 mins by UPLC-MS/MS analysis; type: ADME, Microsome; conditions: at 10 µg/mL, read-out: Stability
compound,measurement,setting,value
COc1cc2c(cc1OC)C(=O)C(CC1CCN(Cc3ccccc3)CC1)C2 (configuration not stated) [DONEPEZIL],Activity,Danio rerio [1],671 cm
same,Activity,Danio rerio [2],Active
same,Activity,Danio rerio [3],325 cm
same,Activity,Danio rerio [4],334 cm
same,Activity,[5],118%
same,Activity,Danio rerio [6],Active
CC(C(=O)O)c1ccc(-c2ccccc2)c(F)c1 (configuration not stated) [FLURBIPROFEN],Activity,BV-2 [7],185.6 pg/mL
same,Activity,BV-2 [8],1096.7 pg/mL
same,Activity,BV-2 [9],1280.5 pg/mL
same,Activity,BV-2 [10],Non-Toxic
same,Activity,BV-2 [11],808.6 pg/mL
same,Activity,BV-2 [12],149.8 pg/mL
same,Activity,BV-2 [13],92.9 pg/mL
O=C(/C=C/c1ccc(F)cc1)c1ccccc1O,"remaining at 8 h, 1 mg/ml",[14],96.5%
same,IC50,Acetylcholinesterase,25.7 µM
same,"remaining at 3 h, 10 ug/ml",[15],101%
same,Activity,[16],inactive
same,Activity,[17],Active
same,IC50,[18],38.3 µM
same,IC50,[19],0.67 µM
same,"remaining at 8 h, 1 mg/ml",[20],97%
same,Ratio IC50,Homo sapiens,57.2
same,inhibition,[21],86.5%
same,Activity,[22],inactive
same,Activity,BV-2 [23],Dose-Dependent Effect
same,inhibition,[24],76.9%
same,viability at 5 µM,PC-12 [25],80.6%
same,"remaining at 8 h, 1 mg/ml",[26],96%
same,Activity,BV-2 [27],Dose-Dependent Effect
same,"Papp at 18 h, 100 ug/ml",[28],11.5 ×10⁻⁶ cm/s
same,viability at 30 µM,[29],80.1%
same,viability at 10 µM,PC-12 [30],89.9%
same,viability at 20 µM,PC-12 [31],99.1%
same,Activity,BV-2 [32],Dose-Dependent Effect
same,"remaining at 8 h, 1 mg/ml",[33],99%
same,Activity,[34],Active
same,Activity,[35],Active
same,inhibition,[36],10.6%
same,Activity,[37],Active
same,Activity,BV-2 [38],Non-Toxic
same,Activity,PC-12 [39],Non-Toxic
same,"remaining at 1 h, 10 ug/ml",[40],97.2%
